Results on 109 compounds are retold here after a melting point compilation (Tetko et al.).

In general, melting point refers to the temperature of the solid-liquid transition.

`O=[N+]([O-])c1cc(S(=O)(=O)Nc2ccccc2)ccc1Nc1ccccc1`: the melting point was determined as 156 °C.
The value for `CC(C)[C@H]1NC(=O)CNC1=O` was 250 to 260 °C.
The value for `COC(=O)c1ccc(Cl)cc1[N+](=O)[O-]` was 44 °C; that for `CCN(CC)c1ccc(C(=O)O)cc1` was 194 °C; that for `O=C(Nc1ccc(Oc2ccc(Cl)cc2)c(Cl)c1)c1cc(I)cc(I)c1O` was 169 °C.
`CCCCCCCCCCCCCCCCCCCCCCCC(=O)O` yielded a melting point of 84.2 °C.
Compound `CCCCCCCC(=O)OCCCCCC` had a melting point of -30.6 °C.
`COc1cc(N)ccc1Cl` displayed a melting point of 80 °C.
`NC(=O)C1(C(=O)O)CC1` returned a melting point of 184 to 189 °C.
The figure for `O=CNC(c1ccccc1)C(O)c1ccccc1` (centres undefined) is 205 °C.
The figure for `O=C(O)CCCCCCCCCCBr` is 57 °C.
Compound `O=C(O)CSc1cccc2cccc(Cl)c12` came in with a melting point of 156 °C.
Compound `O=C1C=C[C@H](CO)O1` displayed a melting point of 39 to 45 °C.
Take `O=[N+]([O-])c1c(Cl)ccc2nsnc12`: the melting point was 149 to 152 °C.
The value for `CC(NC(=O)COC(=O)c1ccccc1)C(N)=O` (centres undefined) was 202 °C; that for `Fc1cc2nc(S)[nH]c2cc1Cl` was 298 to 301 °C.
The figure for `CCOC(=O)C(C(=O)OCC)C(Br)c1cc(C(Br)C(C(=O)OCC)C(=O)OCC)c([N+](=O)[O-])cc1[N+](=O)[O-]` (centres undefined) is 130 °C; for `CCOC(=O)C(C)(C)C1(O)CCC2(C)C(CCC3C2CCC2(C)C(OCc4ccccc4)CCC32)C1` (centres undefined) it is 147 °C.
The value for `N#Cc1ccc(Cl)c(Cl)c1` was 72 °C; that for `FC1(F)C(F)(F)C(F)(F)C2(F)C(F)(C1(F)F)C(F)(F)C(F)(F)C1(F)C(F)(F)C(F)(F)C(F)(F)C(F)(F)C12F` (centres undefined) was -20 °C.
As to `CCOC(=O)C=Cc1cc(C=CC(=O)OCC)c([N+](=O)[O-])cc1[N+](=O)[O-]`, the melting point is 116 °C.
Turning to `Fc1cc(Br)ccc1-c1ccccc1`, the melting point is 40 °C.
The value for `O=C(O)c1c[nH]c(=O)c(Cl)c1` was 284 to 286 °C; that for `O=C1c2nonc2CCC1Br` (centres undefined) was 65 to 68 °C; that for `CCN(CC)S(=O)(=O)c1ccc(C(=O)O)cc1` was 193 °C.
Regarding `FC(F)(F)c1ccnc(N2CCCNCC2)n1`, the melting point fell in the range of 50 to 51 °C.
The value for `Cc1ccc(-c2csc3nc(C(F)(F)F)cc(=O)n23)cc1` was 186 °C.
The figure for `O=c1ccc2cc([N+](=O)[O-])ccc2o1` is 190 to 192 °C.
The figure for `O=Cc1cccc2ccsc12` is 42 to 43.5 °C; for `CCOC(=O)/C(C#N)=C/c1ccc(O)cc1` it is 171 to 172 °C; for `OCc1cc(Cl)ccc1Cl` it is 78 °C.
On to `CN(C(=O)Cl)c1ccccc1`, for which the melting point amounted to 88.5 °C.
The compound `Fc1cc(F)c(Br)c(Br)c1` returned a melting point of 37 °C.
`CC(=O)Oc1cccc(O)c1` yielded a melting point of 55 °C.
The value for `ClC(Cl)(Cl)C(Cl)(Cl)Cl` was 187 °C.
The figure for `Cc1ccc(S(=O)(=O)CCO)cc1` is 54 to 58 °C; for `CN(c1c(Br)cc(Br)cc1Br)c1c([N+](=O)[O-])cc([N+](=O)[O-])cc1C(F)(F)F` it is 150 °C.
`O=C(O)c1n[nH]c2ccc(Br)cc12` showed a melting point of 290 to 292 °C.
The value for `Oc1cc(C(F)(F)F)nc2c(Br)cccc12` was 136 to 137 °C; that for `C=CC(=C)Cl` was -130 °C; that for `N#Cc1cc(Br)ccc1F` was 79 °C.
The value for `CN(C)CCCOc1nn(Cc2ccccc2)c2ccccc12` was 160 °C.
The value for `O=Cc1csc(-c2ccc(C(F)(F)F)cc2)n1` was 103 to 105 °C; that for `O=C(O)C(Cc1cc(I)c(O)c(I)c1)c1ccccc1` (centres undefined) was 164 °C.
With `CC1(C)OC(=O)C2CCCCC21` (centres undefined), the melting point was 80 °C.
`O=C(O)CSCCOc1ccccc1` returned a melting point of 49 to 52 °C.
The value for `Oc1nn(-c2ccc(Br)cc2)cc1Br` was 199 to 201 °C.
Regarding `CC(=O)Oc1cc(C(F)(F)F)ccc1C(=O)O`, the melting point was found to be 121 °C.
The value for `Clc1ccc2ncccc2c1` was 43.8 °C; that for `NC(=O)Cc1cccc2ccccc12` was 184 °C; that for `Nc1cccc(C=O)c1` was 30 °C.
`CCc1ccc(C(=O)NN)cc1` showed a melting point of 84 to 87 °C.
The value for `CC(=O)NC1C(Oc2ccc([N+](=O)[O-])cc2)OC(CO)C(O)C1O` (centres undefined) was 264 °C.
The compound `O=[N+]([O-])c1cccc(OCCN2CCOCC2)c1` displayed a melting point of 50 to 53 °C.
The figure for `CCN(CC)c1ccc(Cl)cc1` is 45.5 °C; for `Cc1cc(C(F)(F)F)n2nc(N)c(/N=N/c3ccc(Cl)cc3)c2n1` it is 250 °C.
The figure for `CC12CCCC1C1CC=C3CC(O)CCC3(C)C1CC2` (centres undefined) is 136 °C; for `NNC(=O)CC(=O)NN` it is 154 °C.
The value for `ClC1CCCC1` was -50 °C.
Regarding `Cc1ccc(C(=O)COc2c(C(=O)c3ccc(Cl)c(C)c3Cl)c(C)nn2C)cc1`, the melting point came out at 133 °C.
Take `c1ccc2c3c(ccc2c1)-c1cccc2cccc-3c12`: the melting point is 166 °C.
The figure for `O=S(=O)(c1ccccc1)C1CC1(Cl)Cl` (centres undefined) is 83 to 88 °C; for `S=c1sc2nc3ccccc3nc2s1` it is 180 °C.
The value for `O=c1[nH]nc(-c2ccccc2)c2ccccc12` was 240 °C; that for `Cc1ccc(NC(=O)C(C(F)(F)F)C(F)(F)F)c(C)c1` was 193 °C; that for `CC1=Nc2ccccc2Nc2c1c(=O)n(-c1ccccc1)c1ccccc21` was 297 to 299 °C.
On to `OC1(c2ccccc2)c2ccccc2Oc2ccccc21`, for which the melting point fell in the range of 158 to 162 °C.
The value for `Cc1cc2cc(N)ccc2[nH]1` was 152 to 155 °C; that for `CC1=CS(=O)(=O)c2ccc(Cl)cc21` was 168 to 172 °C; that for `O=C(CCl)Nc1ccc(Cl)cc1C(=O)c1ccccc1Cl` was 161 to 163 °C.
Take `COc1cc(C2Nn3c(nnc3-c3ccccc3OC)S2)ccc1O` (centres undefined): the melting point amounted to 137 °C.
The figure for `c1cc(OCC2CO2)ccc1OCC1CO1` (centres undefined) is 111 °C; for `Cc1c(C(=O)O)nnn1Cc1ccc(Br)cc1` it is 192 to 193 °C.
The figure for `N#CCSc1ccc(Cl)cc1` is 80 °C; for `Cc1ccc(C(C)(Cl)C(=O)O)cc1` (centres undefined) it is 112 °C; for `COC=C(C(=O)OC)c1ccccc1Oc1cc(Oc2ccccc2C#N)ncn1` it is 116 °C.
The value for `NNC(=O)c1ccccc1-c1ccccc1` was 140 to 143 °C.
For the compound `Cc1ccc(C(=O)C=Cc2ccc(-c3ccc([N+](=O)[O-])cc3)o2)o1`, the melting point is 178 to 179 °C.
The value for `CCCCCSc1nnc[nH]1` was 47 to 48 °C.
The figure for `NNC(=O)c1cncc(Br)c1` is 199 to 202 °C; for `Cc1cc(Oc2ccc(C(N)=NO)cc2[N+](=O)[O-])cc(C)c1Cl` it is 183 to 185 °C; for `O=C1CCc2ccccc2C1` it is 18 °C.
The value for `COc1ccc(C2c3cc(OC)c(OC)cc3CCN2C(C)=O)cc1` (centres undefined) was 105 to 107 °C; that for `O=C(O)c1cccc(-n2ccnc2)c1` was 194 to 199 °C; that for `CC=C(C)C(=O)OC1CCN2CC=C(COC(=O)C(O)(C(C)OC)C(C)(C)O)C12` (centres undefined) was 97 °C.
As for `C1CCN(C2CCNCC2)C1`, the melting point lay in the range of 52 to 57 °C.
The figure for `O=c1ccn(C2CC(O)C(CO)O2)c(=O)[nH]1` (centres undefined) is 166 °C; for `Cc1nc(O)cc(O)n1` it is 360 °C; for `CC(=O)OC1CCC2C3CC=C4CC5(CCC4(C)C3CCC12C)OCCO5` (centres undefined) it is 196 °C.
The value for `C=C1c2cc(OC)c(OC)cc2CCN1C(C)=O` was 107 to 109 °C.
The compound `O=C(Oc1ccc2ccccc2c1-c1c(OC(=O)c2ccccc2)ccc2ccccc12)c1ccccc1` showed a melting point of 163 to 166 °C.
As for `CCCC1OC2CC3C4CCC5=CC(=O)C=CC5(C)C4C(O)CC3(C)C2(C(=O)CO)O1` (centres undefined), the melting point turned out to be 226 °C.
The value for `CC(=O)OCC1OC(n2cc(I)c(=O)[nH]c2=O)CC1OC(C)=O` (centres undefined) was 161 to 163 °C; that for `CCCC(C)(COC(N)=O)COC(=O)NC(C)C` (centres undefined) was 92 °C.
The compound `O=C(O)C(O)C(F)(F)F` (centres undefined) registered a melting point of 69 °C.
`Brc1ccc(Oc2ccc(Br)cc2Br)c(Br)c1` registered a melting point of 78.5 to 79 °C.
The figure for `O=C(NC1CCN(CCc2c[nH]c3ccccc23)CC1)c1ccccc1` is 208 °C; for `O=C(O)CSCCS(=O)(=O)c1ccc(Cl)cc1` it is 127 to 129 °C.
The figure for `NS(=O)(=O)c1cc(Cl)c(Cl)cc1Cl` is 189 °C; for `Cc1c(C)c2c(c3c1CC3=O)CC2=O` it is 161 °C; for `O=P(c1ccc(Cl)cc1)(c1ccc(Cl)cc1)c1ccc(Cl)cc1` it is 176 to 178 °C.
`Cc1n[nH]c(C)c1C` displayed a melting point of 137 to 139 °C.
In turn, `C=CCCCCCCCCCCCCCCCCC` gave a melting point of 23 °C.
The compound `O=S(=O)(O)c1ccc2cc(O)ccc2c1` displayed a melting point of 125 °C.
`Cc1sc(-c2cccnc2)nc1-c1ccccc1` showed a melting point of 80 °C.
`CNCc1ccc(-c2ccccc2)nc1` registered a melting point of 39 to 41.5 °C.
Compound `Cc1onc(-c2c(Cl)cccc2Cl)c1C=O` had a melting point of 100 to 103 °C.
For the compound `c1ccc(C/C(=N\Nc2ccccc2)c2cccc3ccccc23)cc1`, the melting point lay within 101 to 102 °C.
The figure for `Cc1ccc2c(c1)C(=O)c1cc(C)ccc1C2=O` is 163 °C.
